Measured values as given in patent US4363793A, “Diagnostic radiopharmaceuticals for localization in target tissues exhibiting a regional pH shift relative to surrounding tissues” (State University of New York, priority 1980, dated 1982).

Columns and labels:
[1] = Organ distribution of Se-75 labeled compound in rats after intravenous injection; format: in vivo, Spraque-Dawley male rats; conditions: rat, i.v.; for % dose/organ, blood: blood assumed 7% of body weight; for % dose/organ, muscle: muscle assumed 40% of body weight
From the text: FIGS. 2 and 3 respectively show the relative concentration of Se-75 labeled di-β-(piperidinoethyl)-selenide and di-β-(morpholinoethyl)-selenide in rat brains at several time intervals after an intravenous injection of a dose of the respective compounds into the rat. As is shown in FIG. 3, and also in Table 4, two minutes after an intravenous injection of Se-75 labeled di-β-(morpholinoethyl)-selenide, the brain uptake of the radiopharmaceutical compound reaches a value of 3.19%. […] The terms uptake, % uptake or % dose are used to describe the percentage of the radiopharmaceutical compound contained in a given organ or tissue as compared to the total initial dose. The numerical values in FIGS. 2 and 3 and Tables 3 and 4 represent such percentages.
Studies of distribution of the radiopharmaceutical compounds of the present invention in rats, the results of which are reflected in FIGS. 2 and 3 and Tables 3 and 4, were conducted according to standard practice in the pharmacological sciences, and therefore need not be described here in great detail. Nevertheless, for the sake of complete understanding of the present invention, some experimental details of these studies are briefly described below:
Spraque-Dawley male rats (220-300 g) were injected intravenously (femoral vein) with a 0.2 ml solution (0.5-2 micro Ci) under light ether anaesthesia. At different time periods after the injection, the animals were sacrificed and organs of interest were excised and counted in a well counter. Percent dose was estimated by comparison of tissue counts to suitably diluted aliquots of the injected material. Total activities in blood and muscle were calculated by assuming that they are 7% and 40% of the body weight respectively.

[2] = n-octanol-aqueous medium partition coefficient pH correlation; format: physicochemical
From the text: The n-octanol-aqueous medium partition coefficients of the compound are readily measured in accordance with standard practice in the prior art. Briefly, such measurements include the steps of dissolving a known amount of the compound in an aqueous buffer of a predetermined pH and extracting the buffer solution with a known amount of n-octanol until an equilibrium of distribution of the compound between the aqueous and n-octanol phases occurs. The concentration of the compound in both phases is then measured by suitable analytical means, such as ultraviolet spectrophotometry; the partition coefficient being the ratio of the two measured concentrations.
For the purposes of evaluating a plurality of radioactive compounds for use in the novel method of the present invention, the n-octanol-aqueous medium partition coefficients of the compounds were measured in the following manner. The radioactive compound was mixed with 1.0 ml of n-octanol and 1.0 ml of buffer of the desired predetermined pH. The radioactivity of this mixture was counted, and the mixture was placed in a water bath shaker at 37° C. for 2 hours. After centrifugation at 3,000 rpm for 5 minutes, the n-octanol layer was separated and its radioactivity counted. The partition coefficient of the compound was calculated by the following equation: [formula]

[3] = cited from earlier work

In the case of `C1CCN(CC[Se]CCN2CCCCC2)CC1` [di-β-(piperidinoethyl)-selenide], the “penetration of the blood brain barrier (in words)” value [1] is reported as “capable of penetrating the blood brain barrier”, the “% dose/organ, heart” value ([1]; 2 min) is reported as 3.04% and the “% dose/organ, kidney” value ([1]; 2 min) is reported as 7.14%. For the same compound, the “% dose/organ, liver” value ([1]; 2 min) was 12.0%, the “% dose/organ, lung(2)” value ([1]; 2 min) was 20.0% and the “% dose/organ, pancreas” value ([1]; 2 min) was 0.62%. For the same compound, the “% dose/organ, spleen” value ([1]; 2 min) was 0.51%, the “% dose/organ, brain (brain uptake)” value ([1]; 2 min (morpholinoethyl: average of 5 samples)) was 1.09% and the “% dose/organ, blood” value ([1]; 2 min) was 4.58%. For the same compound, the “% dose/organ, muscle” value ([1]; 2 min) was 7.39%, the “% dose/organ, brain (brain uptake)” value ([1]; 30 min) was 1.49% and the “% dose/organ, heart” value ([1]; 30 min) was 0.89%. The “% dose/organ, kidney” value ([1]; 30 min) was 9.21%, the “% dose/organ, liver” value ([1]; 30 min) was 14.3% and the “% dose/organ, lung(2)” value ([1]; 30 min) was 2.83%. For the same compound, the “% dose/organ, pancreas” value ([1]; 30 min) was 1.42%, the “% dose/organ, spleen” value ([1]; 30 min) was 1.31% and the “% dose/organ, blood” value ([1]; 30 min) was 0.87%. For the same compound, the “% dose/organ, muscle” value ([1]; 30 min) was 13.4%, the “% dose/organ, brain (brain uptake)” value ([1]; 1 hr) was 1.53% and the “% dose/organ, heart” value ([1]; 1 hr) was 0.35%. For the same compound, the “% dose/organ, kidney” value ([1]; 1 hr) was 4.43%, the “% dose/organ, liver” value ([1]; 1 hr) was 16.6% and the “% dose/organ, lung(2)” value ([1]; 1 hr) was 1.92%. For the same compound, the “% dose/organ, pancreas” value ([1]; 1 hr) was 1.07%, the “% dose/organ, spleen” value ([1]; 1 hr) was 0.90% and the “% dose/organ, blood” value ([1]; 1 hr) was 0.75%. The “% dose/organ, muscle” value ([1]; 1 hr) was 16.1%, the “% dose/organ, brain (brain uptake)” value ([1]; 2 hr) was 1.63% and the “% dose/organ, heart” value ([1]; 2 hr) was 0.19%. The “% dose/organ, kidney” value ([1]; 2 hr) was 2.89%, the “% dose/organ, liver” value ([1]; 2 hr) was 15.9% and the “% dose/organ, lung(2)” value ([1]; 2 hr) was 0.85%. For the same compound, the “% dose/organ, pancreas” value ([1]; 2 hr) was 0.84%, the “% dose/organ, spleen” value ([1]; 2 hr) was 1.03% and the “% dose/organ, blood” value ([1]; 2 hr) was 0.65%. The “% dose/organ, muscle” value ([1]; 2 hr) was 12.0%, the “% dose/organ, brain (brain uptake)” value ([1]; 4 hr) was 1.32% and the “% dose/organ, heart” value ([1]; 4 hr) was 0.16%. The “% dose/organ, kidney” value ([1]; 4 hr) was 1.53%, the “% dose/organ, liver” value ([1]; 4 hr) was 16.0% and the “% dose/organ, lung(2)” value ([1]; 4 hr) was 0.82%. For the same compound, the “% dose/organ, pancreas” value ([1]; 4 hr) was 0.60%, the “% dose/organ, spleen” value ([1]; 4 hr) was 0.61% and the “% dose/organ, blood” value ([1]; 4 hr) was 0.59%. The “% dose/organ, muscle” value ([1]; 4 hr) was 11.9%, the “% dose/organ, brain (brain uptake)” value ([1]; 6 hr) was 1.18% and the “% dose/organ, kidney” value ([1]; 6 hr) was 0.64%. The “% dose/organ, liver” value ([1]; 6 hr) was 7.66%, the “% dose/organ, spleen” value ([1]; 6 hr) was 0.34% and the “% dose/organ, blood” value ([1]; 6 hr) was 0.51%. The “% dose/organ, muscle” value ([1]; 6 hr) was 11.5%, the “% dose/organ, brain (brain uptake)” value ([1]; 24 hr) was 0.91% and the “% dose/organ, heart” value ([1]; 24 hr) was 0.03%. The “% dose/organ, kidney” value ([1]; 24 hr) was 0.38%, the “% dose/organ, liver” value ([1]; 24 hr) was 4.79% and the “% dose/organ, lung(2)” value ([1]; 24 hr) was 0.31%. For the same compound, the “% dose/organ, pancreas” value ([1]; 24 hr) was 0.11%, the “% dose/organ, spleen” value ([1]; 24 hr) was 0.10% and the “% dose/organ, blood” value ([1]; 24 hr) was 0.20%. For the same compound, the “% dose/organ, muscle” value ([1]; 24 hr) was 2.81%, the “% dose/organ, brain (brain uptake)” value ([1]; 3 day) was 0.16% and the “% dose/organ, kidney” value ([1]; 3 day) was 0.12%. The “% dose/organ, liver” value ([1]; 3 day) was 1.72%, the “% dose/organ, spleen” value ([1]; 3 day) was 0.01% and the “% dose/organ, blood” value ([1]; 3 day) was 0.08%. For the same compound, the “% dose/organ, muscle” value ([1]; 3 day) was 0.40%, the “partition coefficient pH dependence (in words)” value ([2]; n-octanol-aqueous medium, pH 6.6 to 7.6) was “much higher partition coefficient pH dependence” and the “partition coefficient / lipid solubility at the pH of the blood (in words)” value ([2]; pH 7.4, morpholinoethyl vs piperidinoethyl selenide) was “less lipid soluble at the pH of the blood”.

For `Cc1c(I)c(=O)n(-c2ccccc2)n1C` [iodoantipyrine], the “penetration of brain tissue (in words)” value ([3]; in vivo) is given as “able to penetrate brain tissue” and the “retention in brain (in words)” value ([3]; within one hour after penetration) is given as “almost completely leaves the brain by diffusion”.
